Reference: publication PMC8887546, “Design and Synthesis of Brain Penetrant Glycopeptide Analogues of PACAP With Neuroprotective Potential for Traumatic Brain Injury and Parkinsonism” (Frontiers in drug discovery, 2022)

Legend:
[1] = tested on: Sprague Dawley rats, 6-OHDA lesion; assay: Microglia morphology in substantia nigra, IBA1 skeleton analysis (study 2); format: in vivo, rat; details: more severe (40%) lesion, treatment vs vehicle, n = 7
Description: Rats were treated with 2LS98Lac or saline (vehicle) as outlined in the Schemes in Figures 9A,B via intraperitoneal (i.p.) injection (15 mg/kg). All animals were made hemi-parkinsonian with unilateral, striatal 6-hydroxydopamine (Sigma Aldrich, St. Louis, MO) injections. After surgery, behavioral assessments were done at 2- and 4-weeks post-surgery. 24 h after the last test animals were either euthanized and whole brains were harvested for future biochemical analysis or perfused and brains collected for immunohistochemistry and stereological assessment of tyrosine hydroxylase-positive (TH+) cells remaining in the SNc. In study 1: n = 16 each group were included, and all underwent the behavioral analysis: n = 16, and for the stereology in the SNc, n = 8 each group was used. In study 2: n = 23 each group were included. […] In the 2LS98Lac group, one video at 4 weeks was lost, reducing n = 22 in this specific analysis, and for the stereology, 2 brains were damaged during processing and could not be included in the stereology of the SNc, therefore […]. For biochemical subanalyses, n = 8 each group. For the microglial morphology subanalysis n = 7 each group.
Three coronal brain sections that contained the substantia nigra (SN) were randomly chosen for each animal. For immunofluorescence of microglia free-floating brain sections were first blocked in 10% horse serum (Vector Laboratories, S-2000–20, Burlingame, CA) and buffer solution (0.01 M PBS, 0.05% Triton, and 0.04% NaN3) for 1 h followed by a 72 h incubation with primary antibodies as appropriate: rabbit anti-IBA1 at 1:1,000 (Wako, 019–19741, Madison, WI), mouse anti-TH at 1:2000 (R& D Systems, MAB7566, Minneapolis, MN). […] All incubation steps were performed at room temperature; washes between incubations were with 0.01 M PBS for 15 min. Vectashield (Vector Laboratories, H-1000) was used to coverslip mounted tissue.
Images were acquired on a confocal microscope (Zeiss NLO 880, San Diego, CA) in 3 fields of view within the SN of each intact and lesioned hemisphere using a ×40 objective (473.33 × 473.33 μm area). […] Threshold parameters were consistent for all images, and the percent area of IBA1 immunofluorescence was measured for each image. The number of cell somas was counted in the IBA1 channel, an approximation of the number of cells imaged in each frame, and all percent area data was divided by this cell count.
Ramified microglial morphology was quantified using an objective and computer-aided skeleton analysis method previously described in detail ([Young and Morrison, 2018]). […] Sampling averages were calculated for each animal within each region (intact SN and lesion SN) prior to statistical analyses. […]

human VPAC1 receptor = molecular target: T1, human VPAC1 receptor (Homo sapiens, UniProt P32241); assay: cAMP stimulation in CHO cells expressing VPAC1; format: cell-based
T1 construct: expressed in transfected cells; host or cells: CHO cells (G418 selection)
T1 sequence (P32241 31-457): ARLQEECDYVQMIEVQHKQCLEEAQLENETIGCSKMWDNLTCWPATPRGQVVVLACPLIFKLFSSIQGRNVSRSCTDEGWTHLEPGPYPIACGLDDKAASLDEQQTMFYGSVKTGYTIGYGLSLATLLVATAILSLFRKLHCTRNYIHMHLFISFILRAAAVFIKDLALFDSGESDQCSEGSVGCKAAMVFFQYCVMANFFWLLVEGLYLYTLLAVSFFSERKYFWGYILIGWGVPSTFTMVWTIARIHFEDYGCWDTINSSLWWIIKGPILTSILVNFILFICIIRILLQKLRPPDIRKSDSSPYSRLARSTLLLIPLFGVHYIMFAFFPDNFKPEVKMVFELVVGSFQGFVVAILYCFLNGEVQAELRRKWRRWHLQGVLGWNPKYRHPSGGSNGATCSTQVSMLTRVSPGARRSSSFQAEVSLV

[2H]C([2H])([2H])C([2H])(C([2H])([2H])[2H])[C@]([2H])(NC(=O)[C@H](C)NC(=O)[C@H](C)NC(=O)[C@H](CC(C)C)NC(=O)[C@H](Cc1ccc(O)cc1)NC(=O)[C@H](CCCCN)NC(=O)[C@H](CCCCN)NC(=O)[C@@]([2H])(NC(=O)[C@H](C)NC(=O)[C@H](CC(C)C)NC(=O)[C@H](CCC(N)=O)NC(=O)[C@H](CCCCN)NC(=O)[C@H](CCCNC(=N)N)NC(=O)[C@H](Cc1ccc(O)cc1)NC(=O)[C@H](CCCNC(=N)N)NC(=O)[C@H](CO)NC(=O)[C@H](Cc1ccc(O)cc1)NC(=O)[C@H](CO)NC(=O)[C@H](CC(=O)O)NC(=O)[C@@H](NC(=O)[C@H](Cc1ccccc1)NC(=O)[C@@H](NC(=O)CNC(=O)[C@H](CC(=O)O)NC(=O)[C@H](CO)NC(=O)[C@@H](N)Cc1c[nH]cn1)[C@@H](C)CC)[C@@H](C)O)C([2H])(C([2H])([2H])[2H])C([2H])([2H])[2H])C(=O)N[C@@H](CC(C)C)C(=O)N[C@@H](CO[C@@H]1O[C@H](CO)[C@@H](O[C@@H]2O[C@H](CO)[C@H](O)[C@H](O)[C@H]2O)[C@H](O)[C@H]1O)C(N)=O [Compound 2LS98Lac]
% area IBA-1/cell on the lesioned side [1]: significant increase
Microglial branches/cell on the lesioned side [1]: significant increase
Microglial endpoints/cell on the lesioned side [1]: trend toward increase
Microglial process length/cell on the lesioned side [1]: significant increase
Emax (human VPAC1 receptor; CHO, read-out: VPAC1 Emax): 101%
Receptor selectivity ratio VPAC1/PAC1 (human VPAC1 receptor; ratio of cAMP EC50 values): 0.63
EC50 (human VPAC1 receptor; read-out: VPAC1 EC50): 450 pM
